Results reported in ChEMBL document CHEMBL1201862, “PubChem BioAssay data set” (2004).
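Growth conditions: 96-well plates. Treatment: test compound, 48 hours, 5 concentrations. Analysis: linear interpolation between bracketing concentrations; unreached endpoints set to highest concentration. Here, GI50 denotes the concentration required for 50% inhibition of growth.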 Active and inactive are the calls of the source. No stated cut-off is given here; in the data, active = GI50 up to about 1.1 µM and inactive = higher.

Columns and labels:
Assay in all cases: NCI-60 cell line screen, 48 h
A498 = system: A498
BT-549 = system: BT-549
CAKI-1 = system: CAKI-1
CCRF-CEM = system: CCRF-CEM
COLO 205 = system: COLO 205
HCT-15 = system: HCT-15
HL-60 = system: HL-60
HT-29 = system: HT-29
NCI-H460 = system: NCI-H460
NCI/ADR-RES = system: NCI/ADR-RES
OVCAR-4 = system: OVCAR-4
OVCAR-5 = system: OVCAR-5
PC-3 = system: PC-3
SF-268 = system: SF-268
SK-OV-3 = system: SK-OV-3
SNB-19 = system: SNB-19
SNB-75 = system: SNB-75
TK-10 = system: TK-10
UACC-62 = system: UACC-62
SR = system: SR

Structure (SMILES) | GI50 (A498) | GI50 (BT-549) | GI50 (CAKI-1) | GI50 (CCRF-CEM) | GI50 (COLO 205) | GI50 (HCT-15) [µM] | GI50 (HL-60) | GI50 (HT-29) | GI50 (NCI-H460) | GI50 (NCI/ADR-RES) | GI50 (OVCAR-4) | GI50 (OVCAR-5) | GI50 (PC-3) | GI50 (SF-268) | GI50 (SK-OV-3) | GI50 (SNB-19) | GI50 (SNB-75) | GI50 (TK-10) | GI50 (UACC-62) | GI50 (SR)
CN(C)CCCN1c2ccc3ccccc3c2Sc2cccc(Cl)c21 | 9.82 µM (inactive) | 15.1 µM (inactive) | 5.33 µM (inactive) | 1.52 µM (inactive) | 1.85 µM (inactive) | 4.33 | 1.63 µM (inactive) | 2.04 µM (inactive) | 1.77 µM (inactive) | 5.56 µM (inactive) | 4.4 µM (inactive) | 5.13 µM (inactive) | 3.01 µM (inactive) | 5.69 µM (inactive) | 11.4 µM (inactive) | 5.87 µM (inactive) | 3.6 µM (inactive) | 2.52 µM (inactive) | 2 µM (inactive) | –
COc1cc(-c2cc(=O)c3c(OC)c(OC)c(OC)cc3o2)c(OC)c(OC)c1OC | – | 51.5 µM (inactive) | > 75 µM (inactive) | 65.2 µM (inactive) | > 75 µM (inactive) | > 75 | 16.9 µM (inactive) | > 75 µM (inactive) | > 75 µM (inactive) | 36.9 µM (inactive) | 41.1 µM (inactive) | > 75 µM (inactive) | 23.6 µM (inactive) | > 75 µM (inactive) | > 75 µM (inactive) | > 75 µM (inactive) | > 75 µM (inactive) | > 75 µM (inactive) | 42.5 µM (inactive) | 63.1 µM (inactive)
CCc1n[nH]c(=O)n1/N=C(\C)c1ccccc1 | > 100 µM (inactive) | > 100 µM (inactive) | > 100 µM (inactive) | > 100 µM (inactive) | > 100 µM (inactive) | > 100 | > 100 µM (inactive) | > 100 µM (inactive) | – | > 100 µM (inactive) | > 100 µM (inactive) | > 100 µM (inactive) | > 100 µM (inactive) | > 100 µM (inactive) | – | > 100 µM (inactive) | – | > 100 µM (inactive) | > 100 µM (inactive) | –
CN(C)c1ccc(/C=C/C=c2/c3ccccc3n3c2cc(-c2ccccc2)[n+]3C)cc1 | 0.387 µM (active) | 0.233 µM (active) | 0.251 µM (active) | 0.187 µM (active) | 0.0698 µM (active) | 0.488 | 0.075 µM (active) | 0.275 µM (active) | 0.307 µM (active) | 3.43 µM (inactive) | 0.414 µM (active) | 0.478 µM (active) | 0.133 µM (active) | 0.497 µM (active) | 0.348 µM (active) | 0.127 µM (active) | 0.336 µM (active) | 0.564 µM (active) | 0.217 µM (active) | –
COc1cccc2c1OC(c1cccc3ccccc13)C([N+](=O)[O-])=C2 (centres undefined) | – | 1.17 µM (inactive) | 2.33 µM (inactive) | 0.312 µM (active) | 1.92 µM (inactive) | 1.55 | 0.612 µM (active) | 1.92 µM (inactive) | 1.9 µM (inactive) | 1.71 µM (inactive) | 3.32 µM (inactive) | 1.82 µM (inactive) | 0.902 µM (active) | 2.96 µM (inactive) | 3.11 µM (inactive) | 1.53 µM (inactive) | 1.32 µM (inactive) | 2.32 µM (inactive) | 1.08 µM (active) | 0.604 µM (active)
C/C=C\C(CC(=O)NCCc1cn(C(=O)OCc2ccccc2)c2ccccc12)CC(=O)OC (centres undefined) | > 100 µM (inactive) | 60 µM (inactive) | > 100 µM (inactive) | – | 40.6 µM (inactive) | > 100 | – | 48.5 µM (inactive) | > 100 µM (inactive) | 41.8 µM (inactive) | 35.9 µM (inactive) | > 100 µM (inactive) | 50.2 µM (inactive) | > 100 µM (inactive) | > 100 µM (inactive) | 63.1 µM (inactive) | > 100 µM (inactive) | > 100 µM (inactive) | 90.4 µM (inactive) | –
O=C(O)[C@H]1CCCN1CP(=O)(O)CN1CCC[C@@H]1C(=O)O | – | > 100 µM (inactive) | > 100 µM (inactive) | > 100 µM (inactive) | > 100 µM (inactive) | > 100 | > 100 µM (inactive) | > 100 µM (inactive) | > 100 µM (inactive) | > 100 µM (inactive) | > 100 µM (inactive) | > 100 µM (inactive) | > 100 µM (inactive) | > 100 µM (inactive) | > 100 µM (inactive) | > 100 µM (inactive) | > 100 µM (inactive) | – | > 100 µM (inactive) | –
N#Cc1nc(-c2ccc(-c3nc(C#N)c(N)o3)cc2)oc1N | – | > 10 µM (inactive) | > 10 µM (inactive) | > 10 µM (inactive) | > 10 µM (inactive) | > 10 | > 10 µM (inactive) | > 10 µM (inactive) | > 10 µM (inactive) | > 10 µM (inactive) | > 10 µM (inactive) | – | > 10 µM (inactive) | > 10 µM (inactive) | > 10 µM (inactive) | > 10 µM (inactive) | > 10 µM (inactive) | > 10 µM (inactive) | > 10 µM (inactive) | > 10 µM (inactive)
